Where a SMILES comes first, the peptide text is derived from it. Bridges are numbered along the chain shown (N, C = ends). [ ]: non-standard residue; d: D form. Nle = CCCC[C@H](N)C(=O)O; Dab = NCC[C@H](N)C(=O)O; Dap = NC[C@H](N)C(=O)O
What was measured:
[1] = molecular target: T1, human Kv1.3 voltage-gated K+ channel (Homo sapiens, UniProt P22001); assay: Kv1.3 blocker activity in FLIPR thallium assay; assay type: cell-based
T1 construct: host or cells: CHO-DUKX
Protocol: A human Kv1.3 voltage-gated K+ channel cell line was purchased from Perkin Elmer (#TDS-AX-010-C-1). The cell line is based on CHO-DUKX cells stably transfected with the human Kv1.3 voltage-gated K+ channel.
The cell line was grown in MEMα with nucleotides, GlutaMAX (Gibco #32571028), 10% Foetal Bovine Serum (FBS), 0.4 mg/ml Geneticin, 100 units/ml Penicillin, and 100 μg/ml Streptomycin and seeded at 10.000 cells/well in black poly-D-lysine-coated 96 well plates.
The FluxOR™ Potassium Ion Channel Assay (Invitrogen #F10016) was used to quantitate flux of thallium ions into the cells as a response to Kv1.3 activation with a stimulus buffer causes depolarization of the cell membrane, thereby generating a fluorescent signal, proportional to channel activity. The assay was performed as described by the assay kit manufacturer including a compound pre-incubation step (30 min, 37° C., 5% CO2) in assay buffer containing 0.02% W/v casein from bovine milk (Sigma #C4765) prior to cell membrane depolarization using a final stimuli buffer composition corresponding to 0.2× FluxOR™ chloride-free buffer, 5 mM K2SO4, 1 mM Tl2SO4. The fluorescence responses were recorded and quantified (maximum response at 50 s, 37° C.) using the FLIPR® Tetra High Throughput Screening System (Molecular Devices, Inc.).
IC50 can be regarded as a measure of potency of inhibition for the respective compound. The IC50 value is a measure of the concentration of an inhibitor required to achieve half of that compound's maximal inhibition of ion channel activity in a given assay.

Rat whole blood = Rat whole blood (Rattus norvegicus, UniProt P15384); assay type: cell-based; details: IL-17A release, thapsigargin, 24 Hr, at least 2 replicates
human Kv1.1 = molecular target: T2, human Kv1.1 (Homo sapiens, UniProt Q09470); assay: cell-based; details: ratio of patch clamp IC50 values
T2 construct: expressed in transfected cells; host or cells: CHO

human Kv1.2 = molecular target: T3, human Kv1.2 (Homo sapiens, UniProt P16389); assay: cell-based; details: ratio of patch clamp IC50 values
T3 construct: expressed in transfected cells; host or cells: CHO

human Kv1.6 = molecular target: T4, human Kv1.6 (Homo sapiens, UniProt P17658); assay: cell-based; details: ratio of patch clamp IC50 values
T4 construct: expressed in transfected cells; host or cells: CHO
T4 sequence (P17658 whole entry): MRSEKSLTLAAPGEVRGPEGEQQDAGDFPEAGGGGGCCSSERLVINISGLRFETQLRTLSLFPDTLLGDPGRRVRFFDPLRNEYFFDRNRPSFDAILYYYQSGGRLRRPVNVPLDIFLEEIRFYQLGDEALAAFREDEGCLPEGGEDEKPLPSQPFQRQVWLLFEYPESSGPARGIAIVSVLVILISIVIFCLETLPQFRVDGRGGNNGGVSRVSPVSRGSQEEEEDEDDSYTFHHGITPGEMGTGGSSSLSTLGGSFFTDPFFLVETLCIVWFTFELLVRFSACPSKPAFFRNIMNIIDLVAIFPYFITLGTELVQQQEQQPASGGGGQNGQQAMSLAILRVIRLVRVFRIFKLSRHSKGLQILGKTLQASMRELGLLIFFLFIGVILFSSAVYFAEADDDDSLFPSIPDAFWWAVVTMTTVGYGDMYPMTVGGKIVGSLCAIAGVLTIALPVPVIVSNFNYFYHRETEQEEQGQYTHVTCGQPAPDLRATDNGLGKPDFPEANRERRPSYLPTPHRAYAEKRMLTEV

T2 sequence (Q09470 whole entry): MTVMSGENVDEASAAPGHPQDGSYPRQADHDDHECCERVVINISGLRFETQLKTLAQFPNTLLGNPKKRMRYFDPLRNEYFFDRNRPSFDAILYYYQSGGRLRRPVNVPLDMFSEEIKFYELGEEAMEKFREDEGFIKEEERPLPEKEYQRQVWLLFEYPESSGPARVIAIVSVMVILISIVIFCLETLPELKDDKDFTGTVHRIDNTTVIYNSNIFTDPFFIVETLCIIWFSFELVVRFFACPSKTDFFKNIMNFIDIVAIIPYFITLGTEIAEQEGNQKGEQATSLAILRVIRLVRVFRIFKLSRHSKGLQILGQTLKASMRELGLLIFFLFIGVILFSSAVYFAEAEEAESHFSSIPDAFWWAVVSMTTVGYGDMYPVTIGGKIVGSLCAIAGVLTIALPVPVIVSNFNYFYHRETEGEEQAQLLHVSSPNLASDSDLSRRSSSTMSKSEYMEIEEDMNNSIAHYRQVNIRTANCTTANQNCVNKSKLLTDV
T1 sequence (P22001 whole entry): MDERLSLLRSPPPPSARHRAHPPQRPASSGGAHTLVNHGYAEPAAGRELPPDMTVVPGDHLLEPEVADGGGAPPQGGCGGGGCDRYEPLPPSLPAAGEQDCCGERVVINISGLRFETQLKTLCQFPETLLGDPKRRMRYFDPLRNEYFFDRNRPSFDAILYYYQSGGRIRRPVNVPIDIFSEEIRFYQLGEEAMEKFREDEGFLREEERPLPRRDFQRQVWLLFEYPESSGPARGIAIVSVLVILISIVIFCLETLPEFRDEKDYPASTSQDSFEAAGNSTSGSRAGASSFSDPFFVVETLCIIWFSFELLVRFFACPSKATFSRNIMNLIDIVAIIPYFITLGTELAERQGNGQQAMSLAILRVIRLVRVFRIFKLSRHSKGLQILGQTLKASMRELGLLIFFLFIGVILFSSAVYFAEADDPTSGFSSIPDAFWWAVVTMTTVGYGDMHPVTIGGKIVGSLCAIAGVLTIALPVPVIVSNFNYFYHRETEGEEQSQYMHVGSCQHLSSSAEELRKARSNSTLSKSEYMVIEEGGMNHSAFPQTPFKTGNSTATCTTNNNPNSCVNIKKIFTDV
Rat whole blood, sequence (P15384 whole entry): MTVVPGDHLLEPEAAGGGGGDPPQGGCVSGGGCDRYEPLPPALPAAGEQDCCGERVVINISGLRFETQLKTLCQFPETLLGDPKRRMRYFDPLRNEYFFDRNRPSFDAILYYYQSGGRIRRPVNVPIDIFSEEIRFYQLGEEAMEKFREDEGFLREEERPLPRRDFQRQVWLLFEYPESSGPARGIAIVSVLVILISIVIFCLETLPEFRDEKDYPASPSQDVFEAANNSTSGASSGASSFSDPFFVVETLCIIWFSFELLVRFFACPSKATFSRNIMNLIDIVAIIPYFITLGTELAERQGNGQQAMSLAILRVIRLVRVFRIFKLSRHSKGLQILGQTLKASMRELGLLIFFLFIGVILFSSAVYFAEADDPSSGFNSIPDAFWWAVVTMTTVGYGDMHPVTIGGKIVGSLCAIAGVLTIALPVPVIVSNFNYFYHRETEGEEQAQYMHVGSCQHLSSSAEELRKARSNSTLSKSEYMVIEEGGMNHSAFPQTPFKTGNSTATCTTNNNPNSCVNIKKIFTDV
T3 sequence (P16389 whole entry): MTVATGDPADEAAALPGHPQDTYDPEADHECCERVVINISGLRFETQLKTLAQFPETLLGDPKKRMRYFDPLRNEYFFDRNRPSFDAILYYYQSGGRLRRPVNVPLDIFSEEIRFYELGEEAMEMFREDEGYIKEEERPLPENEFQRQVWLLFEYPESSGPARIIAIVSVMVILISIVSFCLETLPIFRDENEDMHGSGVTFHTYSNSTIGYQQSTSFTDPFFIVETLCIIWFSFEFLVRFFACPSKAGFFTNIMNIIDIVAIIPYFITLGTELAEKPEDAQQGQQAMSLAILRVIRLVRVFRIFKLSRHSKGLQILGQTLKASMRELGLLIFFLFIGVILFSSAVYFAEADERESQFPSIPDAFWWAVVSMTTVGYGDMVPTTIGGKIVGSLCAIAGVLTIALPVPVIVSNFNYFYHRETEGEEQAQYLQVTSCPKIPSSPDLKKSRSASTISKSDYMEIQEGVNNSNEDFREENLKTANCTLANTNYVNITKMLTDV

Structure (SMILES)	IC50 [1] [nM]	IC50 (Rat whole blood) [nM]	Selectivity ratio Kv1.1/Kv1.3 (human Kv1.1)	Selectivity ratio Kv1.2/Kv1.3 (human Kv1.2)	Selectivity ratio Kv1.6/Kv1.3 (human Kv1.6)
CCCC[C@H](NC(=O)[C@@H]1CCCN1)C(=O)N[C@@H](CCC(=O)O)C(=O)N[C@@H](CCCC)C(=O)N[C@@H](CCCNC(=N)N)C(=O)N[C@H]1CSSC[C@@H]2NC(=O)[C@H](CCCCN)NC(=O)CNC(=O)[C@H](Cc3ccccc3)NC(=O)[C@H]([C@@H](C)CC)NC(=O)[C@H](CO)NC(=O)CNC(=O)[C@H]([C@@H](C)CC)NC(=O)[C@H](C)NC(=O)[C@H](C)NC(=O)[C@H](CC(C)C)NC(=O)[C@@H]3CSSC[C@@H](C(=O)N[C@@H](Cc4ccc(O)cc4)C(=O)N4CCC[C@H]4C(=O)N[C@@H](CCCNC(=N)N)C(=O)O)NC(=O)[C@H](CCCCN)NC(=O)[C@H](CSSC[C@H](NC(=O)[C@H](CCC(=O)O)NC(=O)[C@H](C(C)C)NC(=O)[C@H](CN)NC(=O)[C@H](C)NC(=O)[C@H](CO)NC1=O)C(=O)N[C@@H](CCCCN)C(=O)N[C@@H](CCC(N)=O)C(=O)N[C@@H](CCCCN)C(=O)N3)NC(=O)[C@H](CCCCN)NC(=O)[C@H](CCCCN)NC(=O)[C@H](CC(N)=O)NC(=O)[C@H](CCCC)NC2=O [compound 8] (H-P[Nle]E[Nle]RCSA[Dap]VECKQKCLAAIGSIFGKC[Nle]NKKCKCYPR-OH; disulfide 6-27, 12-32, 16-34)	0.26				
CCCC[C@H](NC(=O)[C@@H]1CCCN1)C(=O)N[C@@H](CCC(=O)O)C(=O)N[C@@H](CCCC)C(=O)N[C@@H](CCCNC(=N)N)C(=O)N[C@H]1CSSC[C@@H]2NC(=O)[C@H](CCCCN)NC(=O)CNC(=O)[C@H](Cc3ccccc3)NC(=O)[C@H]([C@@H](C)CC)NC(=O)[C@H](CO)NC(=O)CNC(=O)[C@H]([C@@H](C)CC)NC(=O)[C@H](C)NC(=O)[C@H](C)NC(=O)[C@H](CC(C)C)NC(=O)[C@@H]3CSSC[C@@H](C(=O)N[C@@H](Cc4ccc(O)cc4)C(=O)N4CCC[C@H]4C(=O)N[C@@H](CCCNC(=N)N)C(N)=O)NC(=O)[C@H](CCCCN)NC(=O)[C@H](CSSC[C@H](NC(=O)[C@H](CCC(=O)O)NC(=O)[C@H](CCCNC(=N)N)NC(=O)[C@H](CO)NC(=O)[C@H](C)NC(=O)[C@H](CO)NC1=O)C(=O)N[C@@H](C)C(=O)N[C@@H](CCC(N)=O)C(=O)N[C@@H](CO)C(=O)N3)NC(=O)[C@H](CCCCN)NC(=O)CNC(=O)[C@H](CC(N)=O)NC(=O)[C@H](CCCC)NC2=O [compound 12] (H-P[Nle]E[Nle]RCSASRECAQSCLAAIGSIFGKC[Nle]NGKCKCYPR-NH2; disulfide 6-27, 12-32, 16-34)	0.45				
CCCC[C@H](NC(=O)[C@@H]1CCCN1)C(=O)N[C@@H](CCC(=O)O)C(=O)N[C@@H](CCCC)C(=O)N[C@@H](CCCNC(=N)N)C(=O)N[C@H]1CSSC[C@@H]2NC(=O)[C@H](CCCCN)NC(=O)CNC(=O)[C@H](Cc3ccccc3)NC(=O)[C@H]([C@@H](C)CC)NC(=O)[C@H](CO)NC(=O)CNC(=O)[C@H]([C@@H](C)CC)NC(=O)[C@H](C)NC(=O)[C@H](C)NC(=O)[C@H](CC(C)C)NC(=O)[C@@H]3CSSC[C@@H](C(=O)N[C@@H](Cc4ccc(O)cc4)C(=O)N4CCC[C@H]4C(=O)N[C@@H](CCCNC(=N)N)C(=O)O)NC(=O)[C@H](CCCCN)NC(=O)[C@H](CSSC[C@H](NC(=O)[C@H](CCC(=O)O)NC(=O)[C@H](C(C)C)NC(=O)[C@H](CO)NC(=O)[C@H](C)NC(=O)[C@H](CCN)NC1=O)C(=O)N[C@@H](C)C(=O)N[C@@H](CCC(N)=O)C(=O)N[C@@H](CO)C(=O)N3)NC(=O)[C@H](CCCCN)NC(=O)CNC(=O)[C@H](CC(N)=O)NC(=O)[C@H](CCCC)NC2=O [compound 9] (H-P[Nle]E[Nle]RC[Dab]ASVECAQSCLAAIGSIFGKC[Nle]NGKCKCYPR-OH; disulfide 6-27, 12-32, 16-34)	4.6				
CCCC[C@H](NC(=O)[C@@H]1CCCN1)C(=O)N[C@@H](CCC(=O)O)C(=O)N[C@@H](CCCC)C(=O)N[C@@H](CCCNC(=N)N)C(=O)N[C@H]1CSSC[C@@H]2NC(=O)[C@H](CCCCN)NC(=O)CNC(=O)[C@H](Cc3ccccc3)NC(=O)[C@H]([C@@H](C)CC)NC(=O)[C@H](CO)NC(=O)CNC(=O)[C@H]([C@@H](C)CC)NC(=O)[C@H](C)NC(=O)[C@H](C)NC(=O)[C@H](CC(C)C)NC(=O)[C@@H]3CSSC[C@@H](C(=O)N[C@@H](Cc4ccc(O)cc4)C(=O)N4CCC[C@H]4C(=O)N[C@@H](CCCNC(=N)N)C(N)=O)NC(=O)[C@H](CCCCN)NC(=O)[C@H](CSSC[C@H](NC(=O)[C@H](CCC(=O)O)NC(=O)[C@H](C(C)C)NC(=O)[C@H](CO)NC(=O)[C@H](C)NC(=O)[C@H](CCCNC(=N)N)NC1=O)C(=O)N[C@@H](C)C(=O)N[C@@H](CCC(N)=O)C(=O)N[C@@H](CO)C(=O)N3)NC(=O)[C@H](CCCCN)NC(=O)CNC(=O)[C@H](CC(N)=O)NC(=O)[C@H](CCCC)NC2=O [compound 11] (H-P[Nle]E[Nle]RCRASVECAQSCLAAIGSIFGKC[Nle]NGKCKCYPR-NH2; disulfide 6-27, 12-32, 16-34)	0.22				
CC[C@H](C)[C@@H]1NC(=O)[C@H](C)NC(=O)[C@H](CCCCN)NC(=O)[C@H](CC(C)C)NC(=O)[C@@H]2CSSC[C@@H](C(=O)N[C@@H](Cc3ccc(O)cc3)C(=O)N3CCC[C@H]3C(=O)N[C@@H](CCCNC(=N)N)C(N)=O)NC(=O)[C@H](CCCCN)NC(=O)[C@@H]3CSSC[C@H](NC(=O)[C@H](CCC(=O)O)NC(=O)[C@H](CCCNC(=N)N)NC(=O)[C@H](CO)NC(=O)[C@H](C)NC(=O)[C@H](CO)NC(=O)[C@@H](NC(=O)[C@H](CCCNC(=N)N)NC(=O)[C@H](CCSC)NC(=O)[C@H](CC(=O)O)NC(=O)[C@H](CCSC)NC(=O)[C@@H](N)CC(N)=O)CSSC[C@H](NC(=O)[C@H](CCCCN)NC(=O)CNC(=O)[C@H](Cc4ccccc4)NC(=O)[C@H]([C@@H](C)CC)NC(=O)[C@H](CO)NC(=O)CNC1=O)C(=O)N[C@@H](CCSC)C(=O)N[C@@H](CC(N)=O)C(=O)N[C@@H](CCCCN)C(=O)N[C@@H](CCCCN)C(=O)N3)C(=O)N[C@@H](CCCCN)C(=O)N[C@@H](CCC(N)=O)C(=O)N[C@@H](CCCCN)C(=O)N2 [compound 31] (H-NMDMRCSASRECKQKCLKAIGSIFGKCMNKKCKCYPR-NH2; disulfide 6-27, 12-32, 16-34)		0.68	>25900	94	1778
CC[C@H](C)[C@@H]1NC(=O)[C@H](C)NC(=O)[C@H](CCCCN)NC(=O)[C@H](CC(C)C)NC(=O)[C@@H]2CSSC[C@@H](C(=O)N[C@@H](Cc3ccc(O)cc3)C(=O)N3CCC[C@H]3C(=O)N[C@@H](CCCNC(=N)N)C(N)=O)NC(=O)[C@H](CCCCN)NC(=O)[C@@H]3CSSC[C@H](NC(=O)[C@H](CCC(=O)O)NC(=O)[C@H](C(C)C)NC(=O)[C@H](CO)NC(=O)[C@H](C)NC(=O)[C@H](CO)NC(=O)[C@@H](NC(=O)[C@H](CCCNC(=N)N)NC(=O)[C@H](CCSC)NC(=O)[C@H](CC(=O)O)NC(=O)[C@H](CCSC)NC(=O)[C@@H](N)CC(N)=O)CSSC[C@H](NC(=O)[C@H](CCCCN)NC(=O)CNC(=O)[C@H](Cc4ccccc4)NC(=O)[C@H]([C@@H](C)CC)NC(=O)[C@H](CO)NC(=O)CNC1=O)C(=O)N[C@@H](CCSC)C(=O)N[C@@H](CC(N)=O)C(=O)N[C@@H](CCCCN)C(=O)N[C@@H](CCCCN)C(=O)N3)C(=O)N[C@@H](CCCCN)C(=O)N[C@@H](CCC(N)=O)C(=O)N[C@@H](CC(C)C)C(=O)N2 [compound 23] (H-NMDMRCSASVECKQLCLKAIGSIFGKCMNKKCKCYPR-NH2; disulfide 6-27, 12-32, 16-34)		3.2	>12700	1080	>12700
CC[C@H](C)[C@@H]1NC(=O)[C@H](C)NC(=O)[C@H](CCCCN)NC(=O)[C@H](CCCCN)NC(=O)[C@@H]2CSSC[C@@H](C(=O)N[C@@H](Cc3ccc(O)cc3)C(=O)N3CCC[C@H]3C(=O)N[C@@H](CCCNC(=N)N)C(N)=O)NC(=O)[C@H](CCCCN)NC(=O)[C@@H]3CSSC[C@H](NC(=O)[C@H](CCC(=O)O)NC(=O)[C@H](C(C)C)NC(=O)[C@H](CO)NC(=O)[C@H](C)NC(=O)[C@H](CO)NC(=O)[C@@H](NC(=O)[C@H](CCCNC(=N)N)NC(=O)[C@H](CCSC)NC(=O)[C@H](CC(=O)O)NC(=O)[C@H](CCSC)NC(=O)[C@@H](N)CC(N)=O)CSSC[C@H](NC(=O)[C@H](CCCCN)NC(=O)CNC(=O)[C@H](Cc4ccccc4)NC(=O)[C@H]([C@@H](C)CC)NC(=O)[C@H](CO)NC(=O)CNC1=O)C(=O)N[C@@H](CCSC)C(=O)N[C@@H](CC(N)=O)C(=O)N[C@@H](CCCCN)C(=O)N[C@@H](CCCCN)C(=O)N3)C(=O)N[C@@H](CCCCN)C(=O)N[C@@H](CCC(N)=O)C(=O)N[C@@H](CCCCN)C(=O)N2 [compound 24] (H-NMDMRCSASVECKQKCKKAIGSIFGKCMNKKCKCYPR-NH2; disulfide 6-27, 12-32, 16-34)		0.56	>13500	202	1955
